In patent publication US20210100247A1, “HARMFUL ORGANISM CONTROL METHOD AND HARMFUL ORGANISM CONTROL COMPOSITION” (priority 2018, published 2021):
Several values for one entry are separate records, joined by “and”; a condition that tells them apart may be missing. Identical values can stand only once.

Test system: Tetranychus urticae
Assay: whole plant or invertebrate
Settings: for Effectiveness Measured Value: next generation survivors, 10 days after spraying; for Corrected Adult Insect Mortality Rate Measured Value: adults, 3 days after spraying
Protocol: Effecacy Confirmation Test on Tetranychus urticae
Eight or ten adult female Tetranychus urticae mites were inoculated on the kidney bean leaves placed in petri dishes on the day before treating with the chemical solutions.
A flowable agent containing the compound A was diluted with a solution obtained by diluting Rabiden 3S 5,000 times in water to prepare a chemical solution A containing the compound A in which the concentration of the compound A is twice the concentration shown in Tables 1 to 4.
A preparation product containing the compound B was diluted with a solution obtained by diluting Rabiden 3S 5,000 times in water to prepare a chemical solution B containing the compound B in which the concentration of the compound B is twice the concentration shown in Tables 1 to 4.
Test number a: Tebufenpyrad: Pyranica EW (manufactured by Nippon Soda Co., Ltd.) Test numbers b and h: Hexythiazox: Nissolan wettable powder (manufactured by Nippon Soda Co., Ltd.) Test number c: Fenpyroximate: Danitron flowable (manufactured by Nippon Pesticides Co., Ltd.) Test number d: Propargite: Omite wettable powder (manufactured by Nippon Pesticides Co., Ltd.) Test number e: Tolfenpyrad: Hachi-Hachi flowable (manufactured by OAT Agrio) Test number f: Abamectin: Agrimec (manufactured by Syngenta Japan) Test number g: Etoxazole: Baroque flowable (manufactured by Kyoyu Agri co., Ltd.) Test number i: Thiodicarb: Lavin wettable powder 75 (manufactured by Bayer Crop Science) Test number j: Spinosad: Spinoace granule wettable powder (Kumiai Chemical Industry Co., Ltd.) Test number k: Isoxathion: Carphos emulsion (manufactured by Nippon Soda Co., Ltd.) Test number l: Acetamiprid: Mospilan water-soluble agent (manufactured by Nippon Soda Co., Ltd.) Test number m: Fipronil: Prince flowable (manufactured by BASF) Test number n: Tralomethrin: Scout flowable agent (manufactured by Nippon Soda Co., Ltd.) Test number o: BT agent (live spore of Bacillus thuringiensis and crystal toxin produced): Zentari granule wettable powder (manufactured by Kitako Chemical Industry Co., Ltd.) Test number p: Buprofezin: Applaud flowable (manufactured by Nippon Pesticides Co., Ltd.) Test number q: Cyromazine: Triggered liquid (manufactured by Syngenta Japan) Test number r: Tebufenozide: Romdan Flowable (manufactured by Nippon Soda Co., Ltd.) Test number s: Flubendiamide: Phoenix granule wettable powder (Nippon Agricultural Co., Ltd.) Test number t: Pyridalyl: pleo flowable (manufactured by Kyoto Agri) Test number u: Lufenuron: Match emulsion (manufactured by Syngenta Japan) Test number v: Flonicamid: Ulala DF (made by Ishihara Bioscience) Test number w: Chlorfenapyr: Kotetsu Flowable (Nippon Pesticides Co., Ltd.) Test number x: Indoxacarb: Tornado flowable (made by Kumiai Chemical Industry Co., Ltd.) Test number y: Diafenthiuron: Gamba wettable powder (manufactured by Syngenta Japan) Test number z: Thiocyclam: Ebisect wettable powder (manufactured by Mitsui Chemicals Agro) Test number aa: Emamectin-benzoate: Affirm emulsion (Syndienta Japan) Test number ab: Pyridaben: Sanmite wettable powder (manufactured by Nissan Chemical Co., Ltd.)
A mixed solution obtained by mixing equal amounts of the chemical solution A and the chemical solution B was sprayed onto a petri dish containing kidney bean leaves inoculated with Tetranychus urticae mites at an amount of 2 mg per cm^2 using a rotary spray tower (AB mixed-component area).
The chemical solution A and the chemical solution B were each diluted 2-fold with a solution obtained by diluting Labiden 3S 5000 times in water to obtain a chemical solution A′ and a chemical solution B′.
The chemical solution A′ was sprayed onto another petri dish containing kidney bean leaves inoculated with Tetranychus urticae mites at an amount of 2 mg per cm^2 using a rotary spray tower (A single-component area).

[1] = Tetranychus urticae, in Phaseolus vulgaris, 240 h, read-out: Effectiveness Measured Value

## C/C(=N\C#N)N(C)Cc1ccc(Cl)nc1 [acetamiprid]
[1]
  pest or weed control at 100 µg/mL: 7%

## CCCOc1cc(C(F)(F)F)ccc1O[C@H]1C[C@H]2CCC[C@@H](C1)N2Oc1ccc(C(F)(F)F)cn1 [acynonapyr, 3-endo-[2-propoxy-4-(trifluoromethyl)phenoxy]-9-[5-(trifluoromethyl)-2-pyridyloxy]-9-azabicyclo[3.3.1] nonan]
Single component 2.0 ppm
  Effectiveness Measured Value: 49% and 51% and 60% and 68% and 46%

## CC(C)N1C(=O)N(c2ccccc2)CS/C1=N\C(C)(C)C [buprofezin]
[1]
  pest or weed control at 200 µg/mL: 17%

## CCOCn1c(-c2ccc(Cl)cc2)c(C#N)c(Br)c1C(F)(F)F [chlorfenapyr]
[1]
  pest or weed control at 50 µg/mL: 46%

## Nc1nc(N)nc(NC2CC2)n1 [cyromazine]
[1]
  pest or weed control at 87 µg/mL: 8%

## CC(C)c1cc(Oc2ccccc2)cc(C(C)C)c1NC(=S)NC(C)(C)C [diafenthiuron]
[1]
  pest or weed control at 25 µg/mL: 7%

## CCOc1cc(C(C)(C)C)ccc1C1COC(c2c(F)cccc2F)=N1 (stereo not drawn) [etoxazole]
[1]
  pest or weed control at 1.6 µg/mL: 85%

## Cc1nn(C)c(Oc2ccccc2)c1C=NOCc1ccc(C(=O)OC(C)(C)C)cc1 [fenpyroximate]
[1]
  pest or weed control at 50 µg/mL: 28%

## N#Cc1nn(-c2c(Cl)cc(C(F)(F)F)cc2Cl)c(N)c1[S+]([O-])C(F)(F)F (stereo not drawn) [fipronil]
[1]
  pest or weed control at 22 µg/mL: 2%

## N#CCNC(=O)c1cnccc1C(F)(F)F [flonicamid]
Single component 100 ppm
  Corrected Adult Insect Mortality Rate Measured Value: 0%
  Effectiveness Measured Value: 3%

## Cc1cc(C(F)(C(F)(F)F)C(F)(F)F)ccc1NC(=O)c1cccc(I)c1C(=O)NC(C)(C)CS(C)(=O)=O [flubendiamide]
[1]
  pest or weed control at 100 µg/mL: 3%

## C[C@@H]1[C@@H](c2ccc(Cl)cc2)SC(=O)N1C(=O)NC1CCCCC1 [hexythiazox]
[1]
  pest or weed control at 1.6 µg/mL: 42%
  pest or weed control at 12.5 µg/mL: 90%

## COC(=O)N(C(=O)N1CO[C@@]2(C(=O)OC)Cc3cc(Cl)ccc3C2=N1)c1ccc(OC(F)(F)F)cc1 [indoxacarb]
Single component 50 ppm
  Corrected Adult Insect Mortality Rate Measured Value: 0%
  Effectiveness Measured Value: 0%

## CCOP(=S)(OCC)Oc1cc(-c2ccccc2)on1 [isoxathion]
[1]
  pest or weed control at 500 µg/mL: 50%

## O=C(NC(=O)c1c(F)cccc1F)Nc1cc(Cl)c(OC(F)(F)C(F)C(F)(F)F)cc1Cl (stereo not drawn) [lufenuron]
[1]
  pest or weed control at 100 µg/mL: 14%

## C#CCOS(=O)OC1CCCCC1Oc1ccc(C(C)(C)C)cc1 (stereo not drawn) [propargite]
[1]
  pest or weed control at 40 µg/mL: 18%

## CC(C)(C)c1ccc(CSc2cnn(C(C)(C)C)c(=O)c2Cl)cc1 [pyridaben]
[1]
  pest or weed control at 200 µg/mL: 0%

## FC(F)(F)c1ccc(OCCCOc2c(Cl)cc(OCC=C(Cl)Cl)cc2Cl)nc1 [pyridalyl]
[1]
  pest or weed control at 100 µg/mL: 11%

## CCc1ccc(C(=O)NN(C(=O)c2cc(C)cc(C)c2)C(C)(C)C)cc1 [tebufenozide]
[1]
  pest or weed control at 200 µg/mL: 10%

## CCc1nn(C)c(C(=O)NCc2ccc(C(C)(C)C)cc2)c1Cl [tebufenpyrad]
[1]
  pest or weed control at 100 µg/mL: 64%

## CN(C)C1CSSSC1 [thiocyclam]
[1]
  pest or weed control at 500 µg/mL: 18%

## CS/C(C)=N\OC(=O)N(C)SN(C)C(=O)O/N=C(\C)SC [thiodicarb]
[1]
  pest or weed control at 750 µg/mL: 0%

## CCc1nn(C)c(C(=O)NCc2ccc(Oc3ccc(C)cc3)cc2)c1Cl [tolfenpyrad]
[1]
  pest or weed control at 150 µg/mL: 4%

## CC1(C)[C@H](C(=O)O[C@H](C#N)c2cccc(Oc3ccccc3)c2)[C@@H]1C(Br)C(Br)(Br)Br (stereo partly drawn) [tralomethrin]
[1]
  pest or weed control at 9.3 µg/mL: 1%

## abamectin
Single component 0.017 ppm
  Corrected Adult Insect Mortality Rate Measured Value: 0%
  Effectiveness Measured Value: 11%

## emamectin-benzoate
Single component 0.02 ppm
  Corrected Adult Insect Mortality Rate Measured Value: 40%
  Effectiveness Measured Value: 17%

## spinosad
Single component 40 ppm
  Corrected Adult Insect Mortality Rate Measured Value: 0%
  Effectiveness Measured Value: 0%
